# Laboratory results as given in US20240327459A1, “PEPTIDE FRAGMENTS FOR TREATMENT OF DIABETES” (Follicum AB, priority 2018, published 2024).
# Entries after “also recorded” stand apart in the source; their conditions may differ. Where no end group is shown, it is not given here.
# Columns and labels:
# [1] = test system: INS-1E cells; assay: Insulin secretion by novel peptide analogues (Example 21, FIG. 16); format: cell-based, rat; settings: 100 nM peptide, high glucose buffer, vs un-supplemented high glucose buffer
# Experimental: Materials and methods: Rat INS-1 β-cells (passages 60-70) were cultured at 37° C. and 5% CO2 in cRPMI media (RPMI 1640 supplemented with 10% fetal bovine serum, 50 IU/mL penicillin, 50 mg/L streptomycin, 10 mM HEPES, 2 mM L-glutamine, 1 mM sodium pyruvate, and 50 μM beta-mercaptoethanol) unless otherwise stated. INS-1 cells were seeded in 96-well plates (2×10^3 cells/well) in cRPMI medium and following overnight incubation, the cells were washed in PBS before pre-incubation for 120 min at 37° C. in Krebs-Ringer bicarbonate buffer, pH 7.4, supplemented with 10 mM HEPES, 0.1% bovine serum albumin and 2.8 mM glucose. Following pre-incubation, the buffer was exchanged with fresh Krebs-Ringer buffer as described above and supplemented with specific glucose concentrations and peptides for the individual experiments as described below. Immediately after 60 minutes incubation at 37° C., an aliquot of the buffer was removed and frozen for subsequent insulin ELIZA assay.
# In order to correct for the variance between experiments, all values were normalized to, and expressed as percentage of the average value of the high glucose control in the individual experiments. The analogues were subsequently ranked according to performance (FIG. 16).
# [2] = test system: INS-1 cells; assay: Proliferation of INS-1 cells ([methyl-3H] thymidine incorporation); format: cell-based, rat
# Experimental: To investigate if FOL-005 and FOL-014 could induce proliferation of β-cells we used INS-1 cells. Rat INS-1 cells were seeded in 96-well plates in RPMI medium with supplement and after 2 hours the medium was changed to RPMI without supplement. During the proliferation experiment the cells were incubated at different test conditions (FOL-005, FOL-014, coated or in solution, 48 h incubation) and during the last 20 hours of culture period the cells were pulsed with 1 μ Ci/well of [methyl-3H] thymidine. The cells were then harvested onto glass fiber filters using a FilterMate harvester. The filters were air dried, and the bound radioactivity was measured using a liquid scintillation counter. To study whether FOL-005 influenced β-cell proliferation, INS-1 cells were treated with increasing amounts of soluble FOL-005 (0.06-6 μM) during 48 hours and proliferation was measured with radiolabeled thymidine incorporation into newly synthesized DNA.
# [3] = test system: INS-1 cells; assay: Glucotoxicity-induced apoptosis of INS-1 cells (Annexin V staining, caspase-3 activity); format: cell-based, rat; settings: 20 mM glucose, 48 h, vs 20 mM glucose alone
# Experimental: Since glucotoxicity in pancreatic β-cells is a well-established process in type 2 diabetes we next investigated the protective effects of FOL-005 on β-cells during glucotoxic conditions. First we confirmed that 20 mM glucose induced cell apoptosis in INS cells after 48 h of exposure. High glucose (20 mM) containing RPMI medium induced more Annexin V positive cells and more caspase-3 activity in INS cells compared to cells incubated with medium containing 5 mM glucose (FIG. 2A-B). […] The rate of apoptosis in INS-1 cells was measured with either Caspase-3 Assay Kit or stained with Annexin V Apoptosis Detection Kit with 7-AAD. Caspase-3 activity was measured with fluorescence at an excitation wavelength of 380 nm and an emission wavelength of 440 nm. Caspase-3 activity was then normalized to protein concentration in each well. Measurements of
# Annexin V stained cells were performed using a CyAn ADP flow cytometer and analyzed with Summit V4.3 software.
# [4] = test system: mouse pancreatic islets; assay: Insulin secretion from isolated mouse pancreatic islets (Examples 5 and 7); format: cell-based; settings: 60 min
# Experimental: Mouse pancreatic islets were isolated from 8-week old C57BL/6J male mice (Taconic). Mice were sacrificed by an overdose of isoflurane and cervical dislocation. 3 ml of 0.9 U/ml collagenase P was injected into the pancreatic duct to inflate the pancreas. The Pancreas was then removed and collagen digested for 19 min at 37° C. The samples Were vigorously shaken to disrupt the tissue. The digest was transferred into ice cold Hank's Balanced Salt Solution (HBSS) with Ca^2+ and Mg^2+. The suspension was allowed to sit for 10 min to allow the islet to sink, and the islets were washed in fresh HBSS four times. The islets were then hand-picked and sorted according to size. Islets (n=3 per well in a 96 well plate) were pre-incubated in KRB buffer during 10 min 37° C., pH 7.4, supplemented with 10 mM HEPES, 0.1% bovine serum albumin. After pre-incubation, the buffer was changed and islets were incubated at different test conditions in new KRB buffer with 0.1% bovine serum albumin (non-treated ctrl, FOL-005 peptide, or GLP-1) for 60 min at 37° C. Immediately after incubation, an aliquot of the buffer was removed and frozen for subsequent assay of insulin.
# Mouse pancreatic islets were isolated from 8-week old C57BL/6J male mice as described under example 5. The islets were then hand-picked and sorted according to size. Islets (n=5 per well in a 96 well plate) were pre-incubated in 200 μl KRB buffer during 10 min 37° C., pH 7.4, supplemented with 10 mM HEPES, 0.1% bovine serum albumin. Following pre-incubation, the buffer was changed and islets were incubated in different test conditions in new KRB buffer with 0.1% bovine serum albumin (non-treated ctrl, FOL-014 peptide, and GLP-1) for 60 min at 37° C. Immediately after incubation, an aliquot of the buffer was removed and frozen for subsequent assay of insulin.
# [5] = test system: INS-1 β-cells; assay: Insulin secretion from INS-1 cells (Examples 4 and 6); format: cell-based, rat; settings: 6 μM peptide
# Experimental: To investigate the stimulatory effect of FOL-005 on insulin secretion, INS-1 β-cells were used in the following experiments. Cells were seeded overnight in cRPMI and then washed with PBS before pre-incubation for 60 min at 37° C. in Krebs-Ringer bicarbonate buffer (KRB), pH 7.4, supplemented with 10 mM HEPES, 0.1% bovine serum albumin. After pre-incubation, the buffer was changed and the INS-1 cells were incubated at different test conditions (0 mM, 5 mM or 20 mM glucose) and stimulated with peptide FOL-005 or FOL-015 (SEQ ID NO: 158) or left untreated during 60 min at 37° C. Immediately after incubation, an aliquot of the buffer was removed and frozen for subsequent assay of insulin with an insulin radioimmunoassay kit.
# INS-1 β-cells were used to investigate the stimulatory effect of FOL-014 on insulin secretion. Cells were seeded overnight and then washed with PBS before pre-incubation for 60 min at 37° C. in Krebs-Ringer bicarbonate buffer (KRB), pH 7.4, supplemented with 10 mM HEPES, 0.1% bovine serum albumin. After pre-incubation, the buffer was changed and the INS-1 cells were incubated in new KRB buffer supplemented with 10 mM HEPES, 0.1% bovine serum albumin and stimulated with peptide FOL-014 or left untreated during 60 min at 37° C. Immediately after incubation, an aliquot of the buffer was removed and frozen for subsequent assay of insulin.
# [6] = test system: isolated mouse islets; assay: Insulin and glucagon secretion from isolated mouse islets (Example 12); format: cell-based; settings: 100 nM
# Experimental: Twelve-week-old male C57/bl6 mice were euthanized with isoflurane and cervical dislocation. After clamping the hepatic ducts, 3 ml of 0.9 U/ml collagenase P was injected into the bile duct to inflate the pancreas. The pancreas was then removed and digested for 19 min at 37° C. The samples were vigorously shaken to disrupt the tissue. The digest was quickly transferred into ice cold Hank's Balanced Salts Solution with Ca^2+ and Mg^2+. The suspension was allowed to sit for 8 min to allow the islet to sink, and the islets were washed in the same manner four times. The islets were then handpicked and sorted according to size.
# Freshly isolated islets were seeded in groups of 5 in a 96-well plate and preincubated for 1 h at 37° C. in a Krebs-Ringer bicarbonate buffer (pH 7.4). The islets were incubated for 1 h at 37° C. in Krebs-Ringer buffered solution supplemented with 0.6 or 6 μM FOL-014 or 100 nM GLP-1 or left unsupplemented for control. Immediately after incubation, the medium was removed for assays of insulin and glucagon using Mercodia's ELISA kits. The effect of FOL-014 on insulin (FIGS. 8A and B) and glucagon (FIGS. 8C and D) secretion from isolated mouse islets was measured in the presence of low glucose (2.8 mM; FIGS. 8A and C) or high glucose (16.7 mM; FIGS. 8B and D) concentrations.
substance,measurement,setting,value
DSIELSYGIK (MISC_FEATURE - peptide) [FOL-059],insulin secretion,[1],increased the insulin secretion as compared with cells treated with an un-supplemented high glucose buffer
"VDTYDGDISVVYGLR (MISC_FEATURE - peptide, FOL-005)",proliferation of INS-1 cells,"[2]; peptide in solution, 0.06-6 μM, 48 hours",stimulated INS-1 cell proliferation; also recorded: induced increasing proliferation of INS-1 cells
same,proliferation of INS-1 cells,"[2]; wells coated with peptide and blocked with BSA, vs BSA coated control wells",stimulated proliferation compared to control; also recorded: induced more proliferation of β-cells compared to only BSA coated control
same,apoptotic cells (Annexin V positive),[3],decreased cell apoptosis; also recorded: reduced the level of apoptotic cells compared to 20 mM glucose alone
same,caspase-3 activity,[3],decreased cell apoptosis; also recorded: diminished the rate of glucotoxicity-induced caspse-3 activity
same,insulin secretion,"[4]; Example 5, 6 μM, vs unstimulated control islets",secreted more insulin compared to unstimulated control islets
same,insulin secretion at 20 mM glucose compared with 5 mM glucose,[5],responded with more insulin secretion compared to FOL-005 stimulated cells incubated with 5 mM glucose
same,insulin release,[5]; 5 mM or 20 mM glucose,responded with insulin secretion; also recorded: stimulated insulin release
same,insulin release,"[5]; non glucose containing media, 60 min, vs unstimulated control and FOL-015",secreted more insulin compared to unstimulated control cells or to cells stimulated with the FOL-015 control peptide; also recorded: increased
IDSIELSYGIK (MISC_FEATURE - peptide) [FOL-058],insulin secretion,[1],increased the insulin secretion as compared with cells treated with an un-supplemented high glucose buffer
EIDSIELSYGIK (MISC_FEATURE - peptide) [FOL-057],insulin secretion,[1],increased the insulin secretion as compared with cells treated with an un-supplemented high glucose buffer
"GLP-1: native glucagon-like peptide-1, metabolic hormone that stimulates insulin secretion; comparator (HAEGTFTSDVSSYLEGQAAKEFIAWLVKGR; ends and bridges not checked; UniProt P01275 98-127, looked up) [reference compound]",insulin secretion,"[4]; Example 5, 100 nM, vs unstimulated control islets",secreted more insulin compared to unstimulated control islets
same,insulin secretion,"[4]; Example 7, 100 nM",did not affect insulin secretion; also recorded: had no effect on insulin secretion
same,glucagon secretion,[6]; high glucose (16.7 mM),efficiently reduced glucagon secretion
same,insulin secretion,[6]; high glucose (16.7 mM),significantly increased insulin secretion
same,glucagon secretion,[6]; low glucose (2.8 mM),failed to inhibit glucagon secretion in low glucose conditions
same,insulin secretion,[6]; low glucose (2.8 mM),enhanced insulin secretion also in low glucose samples
